From ChEMBL document CHEMBL1131392, “3-Pyridyloxypropanolamine agonists of the beta 3 adrenergic receptor with improved pharmacokinetic properties” (Bioorg Med Chem Lett, 1998)

How the values were obtained:
[1] = Oral bioavailability in dog; format: ADME, organism-based, Canis lupus familiaris; details: in vivo
[2] = Plasma clearance upon intravenous administration of 1 mg/Kg in rats; format: ADME, organism-based; details: rat
[3] = Compound was evaluated for half life (t1/2) upon intravenous administration of 1 mg/Kg in rats; format: ADME, organism-based; details: rat, in vivo

| bioavailability [1] [%] | clearance [2] [mL/min/kg] | half-life [3] [min] | Structure (SMILES) |
| --- | --- | --- | --- |
| < 1 |  |  | CCCCCCNC(=O)Nc1ccc(S(=O)(=O)Nc2ccc(CCNC[C@H](O)COc3ccc(O)cc3)cc2)cc1 [L-755507] |
| 3 |  |  | O=S(=O)(Nc1ccc(CCNC[C@H](O)COc2ccc(O)cc2)cc1)c1cnc2ccccc2c1 |
|  | > 200 | 25 | O=S(=O)(Nc1ccc(CCNC[C@H](O)COc2ccc(O)cc2)cc1)c1ccccc1 |
